According to the NIST ThermoML archive (doi:10.1021/je800251v):

Settings: Liquid

CCCC(=O)OCC [ethyl butanoate]
Settings	mass density [kg/m3]
298.15 K, 100 kPa	873.3
298.15 K, 1000 kPa	874.1
298.15 K, 2000 kPa	875
298.15 K, 3000 kPa	875.9
298.15 K, 3100 kPa	876
298.15 K, 5000 kPa	877.5
298.15 K, 10000 kPa	881.5
298.15 K, 15000 kPa	885.3
298.15 K, 20000 kPa	889
298.15 K, 25000 kPa	892.5
298.15 K, 30000 kPa	896.9
298.15 K, 35000 kPa	901.4
303.15 K, 100 kPa	868.1
303.15 K, 1000 kPa	868.9
303.15 K, 2000 kPa	869.8
303.15 K, 3000 kPa	870.7
303.15 K, 3100 kPa	870.7
303.15 K, 5000 kPa	872.4
303.15 K, 10000 kPa	876.5
303.15 K, 15000 kPa	880.4
303.15 K, 20000 kPa	884.1
303.15 K, 25000 kPa	887.8
303.15 K, 30000 kPa	892.3
303.15 K, 35000 kPa	896.9
308.15 K, 100 kPa	862.6
308.15 K, 1000 kPa	863.5
308.15 K, 2000 kPa	864.4
308.15 K, 3000 kPa	865.3
308.15 K, 3100 kPa	865.4
308.15 K, 5000 kPa	867.1
308.15 K, 10000 kPa	871.4
308.15 K, 15000 kPa	875.5
308.15 K, 20000 kPa	879.4
308.15 K, 25000 kPa	883.1
308.15 K, 30000 kPa	887.8
308.15 K, 35000 kPa	892.5
313.15 K, 100 kPa	857.3
313.15 K, 1000 kPa	858.2
313.15 K, 2000 kPa	859.1
313.15 K, 3000 kPa	860.1
313.15 K, 3100 kPa	860.2
313.15 K, 5000 kPa	861.9
313.15 K, 10000 kPa	866.3
313.15 K, 15000 kPa	870.5
313.15 K, 20000 kPa	874.5
313.15 K, 25000 kPa	878.4
313.15 K, 30000 kPa	883.2
313.15 K, 35000 kPa	888.1
318.15 K, 100 kPa	851.9
318.15 K, 1000 kPa	852.8
318.15 K, 2000 kPa	853.8
318.15 K, 3000 kPa	854.8
318.15 K, 3100 kPa	854.9
318.15 K, 5000 kPa	856.7
318.15 K, 10000 kPa	861.3
318.15 K, 15000 kPa	865.8
318.15 K, 20000 kPa	869.9
318.15 K, 25000 kPa	874.1
318.15 K, 30000 kPa	879
318.15 K, 35000 kPa	884.1
323.15 K, 100 kPa	846.7
323.15 K, 1000 kPa	847.4
323.15 K, 2000 kPa	848.4
323.15 K, 3000 kPa	849.5
323.15 K, 3100 kPa	849.6
323.15 K, 5000 kPa	851.7
323.15 K, 10000 kPa	856.7
323.15 K, 15000 kPa	861.1
323.15 K, 20000 kPa	865.4
323.15 K, 25000 kPa	869.4
323.15 K, 30000 kPa	874.5
323.15 K, 35000 kPa	879.7
328.15 K, 100 kPa	841.4
328.15 K, 1000 kPa	842
328.15 K, 2000 kPa	843.3
328.15 K, 3000 kPa	844.5
328.15 K, 3100 kPa	844.6
328.15 K, 5000 kPa	846.6
328.15 K, 10000 kPa	851.5
328.15 K, 15000 kPa	856.2
328.15 K, 20000 kPa	860.5
328.15 K, 25000 kPa	864.8
328.15 K, 30000 kPa	870
328.15 K, 35000 kPa	875.3
333.15 K, 100 kPa	835.8
333.15 K, 1000 kPa	837
333.15 K, 2000 kPa	838.1
333.15 K, 3000 kPa	839.2
333.15 K, 3100 kPa	839.3
333.15 K, 5000 kPa	841.2
333.15 K, 10000 kPa	846.3
333.15 K, 15000 kPa	851.1
333.15 K, 20000 kPa	855.6
333.15 K, 25000 kPa	860.1
333.15 K, 30000 kPa	865.4
333.15 K, 35000 kPa	870.8
338.15 K, 100 kPa	830.3
338.15 K, 1000 kPa	831.5
338.15 K, 2000 kPa	832.6
338.15 K, 3000 kPa	833.8
338.15 K, 3100 kPa	833.9
338.15 K, 5000 kPa	835.9
338.15 K, 10000 kPa	841.2
338.15 K, 15000 kPa	846.2
338.15 K, 20000 kPa	850.8
338.15 K, 25000 kPa	855.5
338.15 K, 30000 kPa	861
338.15 K, 35000 kPa	866.5
343.15 K, 100 kPa	824.8
343.15 K, 1000 kPa	825.9
343.15 K, 2000 kPa	827.1
343.15 K, 3000 kPa	828.3
343.15 K, 3100 kPa	828.4
343.15 K, 5000 kPa	830.7
343.15 K, 10000 kPa	836.2
343.15 K, 15000 kPa	841.4
343.15 K, 20000 kPa	846.1
343.15 K, 25000 kPa	850.1
343.15 K, 30000 kPa	855.7
343.15 K, 35000 kPa	861.8
348.15 K, 100 kPa	819.1
348.15 K, 1000 kPa	820.3
348.15 K, 2000 kPa	821.6
348.15 K, 3000 kPa	822.9
348.15 K, 3100 kPa	823
348.15 K, 5000 kPa	825.1
348.15 K, 10000 kPa	830.9
348.15 K, 15000 kPa	836.2
348.15 K, 20000 kPa	841.1
348.15 K, 25000 kPa	846
348.15 K, 30000 kPa	851.8
348.15 K, 35000 kPa	857.7
353.15 K, 100 kPa	813.5
353.15 K, 1000 kPa	814.7
353.15 K, 2000 kPa	816.1
353.15 K, 3000 kPa	817.4
353.15 K, 3100 kPa	817.5
353.15 K, 5000 kPa	819.8
353.15 K, 10000 kPa	825.7
353.15 K, 15000 kPa	831.2
353.15 K, 20000 kPa	836.3
353.15 K, 25000 kPa	841.4
353.15 K, 30000 kPa	847.4
353.15 K, 35000 kPa	853.4
363.15 K, 100 kPa	799.9
363.15 K, 1000 kPa	801.4
363.15 K, 2000 kPa	803
363.15 K, 3000 kPa	804.5
363.15 K, 3100 kPa	804.7
363.15 K, 5000 kPa	807.9
363.15 K, 10000 kPa	814.4
363.15 K, 15000 kPa	820.7
363.15 K, 20000 kPa	826.7
363.15 K, 25000 kPa	832.4
363.15 K, 30000 kPa	837.7
363.15 K, 35000 kPa	842.7
373.15 K, 100 kPa	788.5
373.15 K, 1000 kPa	790.1
373.15 K, 2000 kPa	791.7
373.15 K, 3000 kPa	793.4
373.15 K, 3100 kPa	793.6
373.15 K, 5000 kPa	796.8
373.15 K, 10000 kPa	804
373.15 K, 15000 kPa	810.8
373.15 K, 20000 kPa	817.2
373.15 K, 25000 kPa	823.1
373.15 K, 30000 kPa	828.7
373.15 K, 35000 kPa	834
383.15 K, 100 kPa	776.9
383.15 K, 1000 kPa	778.6
383.15 K, 2000 kPa	780.4
383.15 K, 3000 kPa	782.2
383.15 K, 3100 kPa	782.4
383.15 K, 5000 kPa	785.5
383.15 K, 10000 kPa	793.5
383.15 K, 15000 kPa	800.8
383.15 K, 20000 kPa	807.5
383.15 K, 25000 kPa	813.8
383.15 K, 30000 kPa	819.6
383.15 K, 35000 kPa	825.2
393.15 K, 100 kPa	765.1
393.15 K, 1000 kPa	766.9
393.15 K, 2000 kPa	768.8
393.15 K, 3000 kPa	770.8
393.15 K, 3100 kPa	771
393.15 K, 5000 kPa	774.5
393.15 K, 10000 kPa	783.1
393.15 K, 15000 kPa	790.9
393.15 K, 20000 kPa	798
393.15 K, 25000 kPa	804.6
393.15 K, 30000 kPa	810.7
393.15 K, 35000 kPa	816.6
